≈ marks a conversion by molar mass, not a printed value.
Tests used:
Assay in all cases: ≥ marks a high value that may be exact or a test limit, other limits are often not marked, values filed in µg/mL are converted to µM
[1] = tested on: Pseudomonas aeruginosa ATCC 27853
[2] = tested on: Bacillus subtilis CMCC 63501
[3] = tested on: Salmonella enterica subsp. enterica serovar Pullorum C79-13
[4] = tested on: Escherichia coli ATCC 25922
[5] = tested on: Staphylococcus epidermidis ATCC 12228
[6] = tested on: Enterococcus faecalis ATCC 29212
[7] = tested on: Staphylococcus aureus ATCC 29213
[8] = tested on: Salmonella enterica subsp. enterica serovar Typhimurium C77-31
[9] = tested on: Porphyromonas gingivalis ATCC 33277
[10] = tested on: Pseudomonas aeruginosa PAER1
[11] = tested on: Staphylococcus aureus SAU2
Staphylococcus aureus = tested on: Staphylococcus aureus
[12] = tested on: Acinetobacter baumannii ABA1
Escherichia coli ECO1 = tested on: Escherichia coli ECO1
[13] = tested on: Pseudomonas aeruginosa PAER7
[14] = tested on: Acinetobacter baumannii ABA2
[15] = tested on: Staphylococcus aureus S5375
[16] = tested on: Staphylococcus aureus ATCC 25923
Acinetobacter baumannii = tested on: Acinetobacter baumannii
[17] = tested on: Pseudomonas aeruginosa PAER10
Pseudomonas aeruginosa = tested on: Pseudomonas aeruginosa
[18] = tested on: Staphylococcus aureus SAU5
[19] = tested on: Pseudomonas aeruginosa PAER4
[20] = tested on: Staphylococcus aureus SAU7
Escherichia coli ECO2 = tested on: Escherichia coli ECO2
Escherichia coli = tested on: Escherichia coli
[21] = tested on: Salmonella enterica serovar Typhimurium
[22] = tested on: Pseudomonas aeruginosa PAO1
[23] = tested on: Aspergillus niger ATCC 9142
[24] = tested on: Aspergillus flavus ATCC 24109
[25] = tested on: Bacillus subtilis ATCC 6051
[26] = tested on: Trichophyton mentagrophytes ATCC 32510
[27] = tested on: Saccharomyces cerevisiae PTCC 5052
[28] = tested on: Cryptococcus neoformans ATCC 2517
[29] = tested on: Microsporum canis PTCC 5069
[30] = tested on: Candida glabrata ATCC 90030
[31] = tested on: Candida krusei ATCC 28870
[32] = tested on: Candida albicans ATCC 10231
[33] = tested on: Aspergillus fumigatus ATCC 1022
[34] = tested on: Enterococcus faecium 091299
Candida glabrata 090902 = tested on: Candida glabrata 090902
[35] = tested on: Klebsiella pneumoniae 08040724
[36] = tested on: Nocardia asteroides 201118
[37] = tested on: Enterococcus faecalis 981
[38] = tested on: Enterobacter cloacae CGMCC 1.57
[39] = tested on: Psychrobacter faecalis X29
[40] = tested on: Salmonella enterica subsp. enterica serovar Typhimurium LT2
[41] = tested on: Cronobacter sakazakii DSM 4485
[42] = tested on: Cronobacter sakazakii DPC 6440
[43] = tested on: Staphylococcus aureus RF122
[44] = tested on: Staphylococcus aureus NCTC 8325-4
[45] = tested on: Pseudomonas fluorescens NCIMB 9046
[46] = tested on: Cronobacter muytjensii ATCC 51329
[47] = tested on: Klebsiella pneumoniae NCIMB 13218
[48] = tested on: Cronobacter sakazakii ATCC BAA-894
[49] = tested on: Staphylococcus aureus RN4220
[50] = tested on: Staphylococcus aureus SA113
[51] = tested on: Staphylococcus aureus Newman
[52] = tested on: Escherichia coli NCIMB 11843

## NC(=O)[C@H](Cc1ccccc1)NC(=O)[C@H](CCCN=C(N)N)NC(=O)[C@H](CS)NC(=O)[C@H](Cc1ccccc1)NC(=O)[C@H](CCCN=C(N)N)NC(=O)[C@H](CCCN=C(N)N)NC(=O)[C@H](CCCN=C(N)N)NC(=O)[C@H](CS)NC(=O)[C@H](CCCN=C(N)N)NC(=O)[C@@H](N)Cc1ccccc1 [FRCRRRFCRF]
[1]
  MIC: > 128 µM
[2]
  MIC: 4 µM (≈ 5.78 µg/mL)
[3]
  MIC: 16 µM (≈ 23.1 µg/mL)
[4]
  MIC: 4 µM (≈ 5.78 µg/mL)
[5]
  MIC: 16 µM (≈ 23.1 µg/mL)
[6]
  MIC: 32 µM (≈ 46.3 µg/mL)
[7]
  MIC: 32 µM (≈ 46.3 µg/mL)
[8]
  MIC: ≥ 32 µM

## CC[C@H](C)[C@H](NC(=O)[C@H](CCCN=C(N)N)NC(=O)[C@H](Cc1c[nH]c2ccccc12)NC(=O)[C@H](CCC(N)=O)NC(=O)[C@@H](N)C(C)C)C(=O)N[C@@H](CCCN=C(N)N)C(=O)N[C@H](C(=O)N[C@@H](C)C(=O)N[C@H](C(=O)N[C@H](C(=O)N[C@@H](CCCN=C(N)N)C(=O)N[C@@H](CCCCN)C(=O)O)[C@@H](C)CC)C(C)C)C(C)C [VQWRIRVAVIRK]
[9]
  MIC: 5.25 µM (≈ 8 µg/mL)
[10]
  MIC: 3.71 µM (≈ 5.66 µg/mL)
[11]
  MIC: 21 µM (≈ 32 µg/mL)
Staphylococcus aureus
  MIC: 14.8 µM (≈ 22.6 µg/mL)
[12]
  MIC: 5.25 µM (≈ 8 µg/mL)
Escherichia coli ECO1
  MIC: 3.71 µM (≈ 5.66 µg/mL)
[13]
  MIC: 21 µM (≈ 32 µg/mL)
[14]
  MIC: 7.42 µM (≈ 11.3 µg/mL)
[15]
  MIC: 14.8 µM (≈ 22.6 µg/mL)
[16]
  MIC: 10.5 µM (≈ 16 µg/mL)
Acinetobacter baumannii
  MIC: 10.5 µM (≈ 16 µg/mL)
[17]
  MIC: 2.62 µM (≈ 4 µg/mL)
Pseudomonas aeruginosa
  MIC: 10.5 µM (≈ 16 µg/mL)
[18]
  MIC: 21 µM (≈ 32 µg/mL)
[19]
  MIC: 10.5 µM (≈ 16 µg/mL)
[4]
  MIC: 10.5 µM (≈ 16 µg/mL)
[20]
  MIC: 21 µM (≈ 32 µg/mL)
Escherichia coli ECO2
  MIC: 3.71 µM (≈ 5.66 µg/mL)
Escherichia coli
  MIC: 42 µM (≈ 64 µg/mL)
[21]
  MIC: 5.25 µM (≈ 8 µg/mL)
[22]
  MIC: 10.5 µM (≈ 16 µg/mL)

## CC[C@H](C)[C@H](NC(=O)[C@H](CCCCN)NC(=O)[C@H](CCCCN)NC(=O)[C@@H](NC(=O)[C@@H](NC(=O)[C@H](CC(=O)O)NC(=O)[C@H](Cc1ccccc1)NC(=O)[C@H](CC(C)C)NC(=O)CN)[C@@H](C)CC)[C@@H](C)CC)C(=O)N[C@@H](C)C(=O)N[C@@H](CCC(=O)O)C(=O)N[C@@H](CO)C(=O)N[C@@H](Cc1ccccc1)C(=O)O [GLFDIIKKIAESF]
[23]
  MIC: ≥ 675 µM
[24]
  MIC: ≥ 675 µM
[1]
  MIC: > 675 µM
[25]
  MIC: ≥ 172 µM
[26]
  MIC: ≥ 675 µM
[16]
  MIC: > 675 µM
[27]
  MIC: ≥ 84.4 µM
[28]
  MIC: ≥ 675 µM
[29]
  MIC: ≥ 675 µM
[30]
  MIC: ≥ 675 µM
[4]
  MIC: 84.4 µM (≈ 125 µg/mL)
[31]
  MIC: ≥ 338 µM
[6]
  MIC: 84.4 µM (≈ 125 µg/mL)
[32]
  MIC: 84.4 µM (≈ 125 µg/mL)
[33]
  MIC: ≥ 84.4 µM

## CC[C@H](C)[C@@H]1NC(=O)[C@H](CCCCN)NC(=O)[C@@H](NC(=O)[C@@H](NC(=O)[C@@H](NC(=O)[C@H](CCCCN)NC(=O)[C@@H]2CCCN2C(=O)[C@H](CC(C)C)NC(=O)[C@H](Cc2ccccc2)NC(=O)[C@H](CC(N)=O)NC(=O)[C@H](C)NC(=O)[C@H](C)NC(=O)[C@H](CC(C)C)NC(=O)CNC(=O)[C@H](C)NC(=O)[C@H](CC(C)C)NC(=O)[C@H](CCSC)NC(=O)[C@@H]2CCCN2C(=O)[C@H](CC(C)C)NC(=O)[C@@H](N)Cc2ccccc2)[C@@H](C)CC)[C@@H](C)CC)CSSC[C@@H](C(=O)O)NC(=O)[C@H](CCCCN)NC(=O)[C@H](CCCCN)NC(=O)[C@H]([C@@H](C)O)NC1=O [FLPMLAGLAANFLPKIICKITKKC]
[34]
  MIC: ≥ 50 µM
Candida glabrata 090902
  MIC: 6.3 µM (≈ 16.6 µg/mL)
[16]
  MIC: 6.3 µM (≈ 16.6 µg/mL)
[35]
  MIC: ≥ 100 µM
[4]
  MIC: 100 µM (≈ 263 µg/mL)
[36]
  MIC: 3.1 µM (≈ 8.16 µg/mL)
[37]
  MIC: 6.3 µM (≈ 16.6 µg/mL)
[38]
  MIC: ≥ 100 µM
[39]
  MIC: 12.5 µM (≈ 32.9 µg/mL)

## CC(C)C[C@H](NC(=O)[C@H](CCCN=C(N)N)NC(=O)[C@H](C)NC(=O)[C@H](CC(N)=O)NC(=O)[C@H](CCC(=O)O)NC(=O)[C@H](CC(N)=O)NC(=O)[C@H](CC(C)C)NC(=O)[C@@H](N)C(C)C)C(=O)O [VLNENARL]
[40]
  MIC: ≥ 1250 µM
[41]
  MIC: ≥ 1250 µM
[42]
  MIC: ≥ 1250 µM
[43]
  MIC: ≥ 1250 µM
[44]
  MIC: ≥ 1250 µM
[45]
  MIC: ≥ 1250 µM
[46]
  MIC: ≥ 1250 µM
[47]
  MIC: ≥ 1250 µM
[48]
  MIC: ≥ 1250 µM
[49]
  MIC: ≥ 1250 µM
[50]
  MIC: ≥ 625 µM
[51]
  MIC: ≥ 1250 µM
[52]
  MIC: ≥ 1250 µM
